In patent publication US20170122958A1, “Enzymes Functional Probes” (University of Dundee, priority 2013, published 2017):

Experiments:
Assay type in all cases: binding
Brd2(2) Leu383-Ile = Brd2(2) Leu383-Ile (Homo sapiens, UniProt P25440, L383I); assay: DSF thermal shift; set-up: Plasmids of the eight single BET bromodomain constructs Brd2(1), Brd2(2), Brd3(1), Brd3(2); His6 (N); made in house; host or cells: E. coli BL21(DE3); conditions: mutant
Brd2(1) Leu110-Ile = Brd2(1) Leu110-Ile (Homo sapiens, UniProt P25440, L110I); assay: DSF thermal shift; set-up: Plasmids of the eight single BET bromodomain constructs Brd2(1), Brd2(2), Brd3(1), Brd3(2); His6 (N); made in house; host or cells: E. coli BL21(DE3); conditions: mutant
brd3(2)L344A = target: T1, brd3(2)L344A (Homo sapiens, UniProt Q15059, L345A); assay: ITC reverse titration of protein into compound; conditions: 30° C.
T1 construct: Plasmids of the eight single BET bromodomain constructs Brd2(1), Brd2(2), Brd3(1), Brd3(2), Brd4(1), Brd4(2), Brdt(1) and Brdt(2); His6 (N); made in house; host or cells: E. coli BL21(DE3)
Protocol: (§1) Results obtained were very promising, showing small shifts from 1.2° C. to a maximum of 2.6° C. for all the eight BET wild types and shifts from 5.4° C. to 13.4° C. for all the leucine to alanine mutants.
(§2) For all mutants, protein was titrated at a concentration between 150-200 μM into a solution of the compound at a concentration of 15-20 μM. In the case of the wild types, protein was titrated at a concentration of 350-400 μM into a solution of the compound between 15-20 μM. FIG. 11 is an illustrative example of the curves obtained for the Brd3(1) bromodomain construct and its respective leucine to alanine mutant titrated into compound 11. We can easily observe a hyperbolic shape for the titration of wild type Brd3(1) into compound 11, corresponding to a low affinity interaction, while for Brd3(1)*(Leu070-Ala) we can easily observe a sharp sigmoidal behaviour corresponding to a high affinity interaction. Furthermore, there is a clear difference in the ΔH produced by each interaction. (ΔH=−22 kcal/mol vs. mutant compared to −7 kcal/mol vs. wild type).
(§3) ITC experiments were carried out on a ITC200 instrument from MicroCal™ Experiments were conducted at 3 different temperatures 15° C., 25° C. and 30° C., while stirring at 1000 rpm. Buffers of proteins, peptide and compounds were matched to 20 mM HEPES pH 7.5 at 25° C. and 100 mM NaCl. Frozen protein was buffer exchanged as described for the DSF experiments. Each titration comprised 1 initial injection of 0.4 μl lasting 0.8 s, followed by 19 injections of 2 μl lasting 4 s each at 2 min intervals. The initial injection was discarded during data analysis. Standard and reverse titrations were conducted depending on the binding partners.
(§4) Reverse titrations were conducted to test the binding of the known ligands and the novel chemical probes to the wild types and the mutants. Experiments were carried out either at 25° C. or 30° C. For strong binders, a concentration of 150-200 μM of the protein was injected into a solution of 15-20 μM compound. […] In cases where the compound was solubilized in dimethyl sulfoxide, DMSO concentration was adjusted to 1% both in the syringe and in the cell.
(§5) All the data was fitted to a single binding site model using the Microcal LLC ITC200 Origin software provided by the manufacturer to yield enthalpies of binding (ΔH) and binding constants (Kas). Further thermodynamic parameters were calculated from these values (changes in entropy ΔS, changes in free energy AG and dissociation constants (Kds)).

Brd3(1)*(Leu070-Ala) = target: T2, Brd3(1)*(Leu070-Ala) (Homo sapiens, UniProt Q15059, L70A); assay: ITC reverse titration of protein into compound; conditions: for Selectivity factor Kd WT/Kd Leu/Ala: 30° C.
T2 construct: Plasmids of the eight single BET bromodomain constructs Brd2(1), Brd2(2), Brd3(1), Brd3(2), Brd4(1), Brd4(2), Brdt(1) and Brdt(2); His6 (N); made in house; host or cells: E. coli BL21(DE3)
Protocol: as §1, §2, §3, §4, §5

brdt(2)L306A = target: T3, brdt(2)L306A (Homo sapiens, UniProt Q58F21, L306A); assay: ITC reverse titration of protein into compound; conditions: 30° C.
T3 construct: Plasmids of the eight single BET bromodomain constructs Brd2(1), Brd2(2), Brd3(1), Brd3(2), Brd4(1), Brd4(2), Brdt(1) and Brdt(2); His6 (N); made in house; host or cells: E. coli BL21(DE3)
Protocol: as §1, §2, §3, §4, §5

T2 sequence (Q15059 34-140 L70A): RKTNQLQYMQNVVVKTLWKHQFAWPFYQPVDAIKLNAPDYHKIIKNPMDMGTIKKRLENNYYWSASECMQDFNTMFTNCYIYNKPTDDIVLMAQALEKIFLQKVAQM
T1 sequence (Q15059 306-415 L345A): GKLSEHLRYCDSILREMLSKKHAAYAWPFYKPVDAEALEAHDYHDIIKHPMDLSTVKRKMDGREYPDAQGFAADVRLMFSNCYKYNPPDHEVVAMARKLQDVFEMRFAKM
Chain of Brd2(1) Leu110-Ile (P25440 74-180 L110I limits assumed): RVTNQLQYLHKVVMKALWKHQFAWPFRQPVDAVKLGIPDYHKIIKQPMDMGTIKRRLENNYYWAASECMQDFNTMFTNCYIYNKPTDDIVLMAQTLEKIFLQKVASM
Chain of Brd2(2) Leu383-Ile (P25440 344-453 L383I limits assumed): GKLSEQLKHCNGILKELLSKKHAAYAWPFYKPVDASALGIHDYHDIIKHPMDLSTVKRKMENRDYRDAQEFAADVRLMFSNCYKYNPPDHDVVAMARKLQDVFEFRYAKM

`COC(=O)[C@H](C)[C@@H]1N=C(c2ccc(Cl)cc2)c2cc(OC)ccc2-n2c(C)nnc21` (racemic) [Compound 7, (+−)-methyl (R)-2-((S)-6-(4-chlorophenyl)-8-methoxy-1-methyl-4H-benzo[f][1,2,4]triazolo[4,3-a][1,4]diazepin-4-yl)propanoate] was tested, and the “Thermal stabilisation brd2(2)V383I (Table 1); Brd2(2) Leu383-Ile (text)” value (Brd2(2) Leu383-Ile) was 9.6 ± 0.1 °C, the “ΔTm Brd2(2)*(Leu383-Ile)” value (Brd2(2) Leu383-Ile) was 9.6 ± 0.1 K and the “Thermal stabilisation brd2(2)V383I (Table 1); Brd2(2) Leu383-Ile (text)” value (Brd2(2) Leu383-Ile; listed as compound 7) was 9.6 °C. The “Thermal stabilisation brd2(1)L110I” value (Brd2(1) Leu110-Ile) was 5.7 ± 0.7 °C, the “ΔTm Brd2(1)*(Leu110-Ile)” value (Brd2(1) Leu110-Ile) was 5.7 ± 0.7 K and the “Thermal stabilisation brd2(1)L110I” value (Brd2(1) Leu110-Ile; listed as compound 7) was 5.7 °C.
`CC[C@@H](C(=O)OC)[C@@H]1N=C(c2ccc(Cl)cc2)c2cc(OC)ccc2-n2c(C)nnc21` (racemic) [Compound 11, (+−)-methyl (R)-2-((S)-6-(4-chlorophenyl)-8-methoxy-1-methyl-4H-benzo[f][1,2,4]triazolo[4,3-a][1,4]diazepin-4-yl)butanoate] was tested, and the “Selectivity factor Kd WT/Kd Leu/Ala” value (brd3(2)L344A; brd3(2)L344A vs WT brd2(1)) was 135, the “Selectivity factor Kd WT/Kd Leu/Ala” value (brd3(2)L344A; brd3(2)L344A vs WT brd2(2)) was 261 and the “Selectivity factor Kd WT/Kd Leu/Ala” value (brd3(2)L344A; brd3(2)L344A vs WT brd3(1)) was 106. The “Selectivity factor Kd WT/Kd Leu/Ala” value (brd3(2)L344A; brd3(2)L344A vs WT brd3(2)) was 112, the “Selectivity factor Kd WT/Kd Leu/Ala” value (brd3(2)L344A; brd3(2)L344A vs WT brd4(1)) was 192 and the “Selectivity factor Kd WT/Kd Leu/Ala” value (brd3(2)L344A; brd3(2)L344A vs WT brd4(2)) was 152. For the same compound, the “Selectivity factor Kd WT/Kd Leu/Ala” value (brd3(2)L344A; brd3(2)L344A vs WT brdt(1)) was 130, the “Selectivity factor Kd WT/Kd Leu/Ala” value (brd3(2)L344A; brd3(2)L344A vs WT brdt(2)) was 185 and the “ΔH Brd3(1)*(Leu070-Ala)” value (Brd3(1)*(Leu070-Ala); ITC 30° C., 1% DMSO) was -22 kcal/mol. The “Selectivity factor Kd WT/Kd Leu/Ala” value (Brd3(1)*(Leu070-Ala); brd3(1)L070A vs WT brd2(1)) was 244, the “Selectivity factor Kd WT/Kd Leu/Ala” value (Brd3(1)*(Leu070-Ala); brd3(1)L070A vs WT brd2(2)) was 469 and the “Selectivity factor Kd WT/Kd Leu/Ala” value (Brd3(1)*(Leu070-Ala); brd3(1)L070A vs WT brd3(1)) was 190. The “Selectivity factor Kd WT/Kd Leu/Ala” value (Brd3(1)*(Leu070-Ala); brd3(1)L070A vs WT brd3(2)) was 202, the “Selectivity factor Kd WT/Kd Leu/Ala” value (Brd3(1)*(Leu070-Ala); brd3(1)L070A vs WT brd4(1)) was 346 and the “Selectivity factor Kd WT/Kd Leu/Ala” value (Brd3(1)*(Leu070-Ala); brd3(1)L070A vs WT brd4(2)) was 273. The “Selectivity factor Kd WT/Kd Leu/Ala” value (Brd3(1)*(Leu070-Ala); brd3(1)L070A vs WT brdt(1)) was 233, the “Selectivity factor Kd WT/Kd Leu/Ala” value (Brd3(1)*(Leu070-Ala); brd3(1)L070A vs WT brdt(2)) was 332 and the “Selectivity factor Kd WT/Kd Leu/Ala” value (brdt(2)L306A; brdt(2)L306A vs WT brd2(1)) was 63. The “Selectivity factor Kd WT/Kd Leu/Ala” value (brdt(2)L306A; brdt(2)L306A vs WT brd2(2)) was 122, the “Selectivity factor Kd WT/Kd Leu/Ala” value (brdt(2)L306A; brdt(2)L306A vs WT brd3(1)) was 49 and the “Selectivity factor Kd WT/Kd Leu/Ala” value (brdt(2)L306A; brdt(2)L306A vs WT brd3(2)) was 52. The “Selectivity factor Kd WT/Kd Leu/Ala” value (brdt(2)L306A; brdt(2)L306A vs WT brd4(1)) was 90, the “Selectivity factor Kd WT/Kd Leu/Ala” value (brdt(2)L306A; brdt(2)L306A vs WT brd4(2)) was 71 and the “Selectivity factor Kd WT/Kd Leu/Ala” value (brdt(2)L306A; brdt(2)L306A vs WT brdt(1)) was 60. For the same compound, the “Selectivity factor Kd WT/Kd Leu/Ala” value (brdt(2)L306A; brdt(2)L306A vs WT brdt(2)) was 86.
